Reference: US5700469A, “HIV-1 core protein fragments” (Medical Research Council, priority 1990, dated 1997)
Read-outs that look alike come from different tables or passages of the source. Where no end group is shown, it is not given here.

Tests used:
[1] = test system: human leucocyte antigen (HLA) class I molecule; assay: CTL assay: lysis of 51-chromium labelled, HLA-matched B lymphoblastoid target cells sensitized with peptide; format: cell-based; conditions: for HLA restriction of the peptide (through one or more of the antigens): HLA restrictions not yet fully worked out
Method: Peptides in accordance with the invention can also be used for diagnostic purposes. […] Briefly, fresh peripheral blood mononuclear cells (or lymphocytes obtained from biopsy material) are prepared and added at ratios of 50:1, 25:1 and 10:1 to 10^4 51 -chromium labelled B lymphoblastoid cells matched for the relevant HLA molecules. The HLA type of patient is determined in known manner by tissue typing, and B lymphoblastoid cells obtained from a donor of known HLA type (again determined in known manner by tissue typing) and transformed with Epstein Barr using known techniques. A peptide in accordance with the invention, which interacts with the relevant HLA molecule, is also added to the cells in a concentration of 10 to 100 u molar. After 4 hours incubation the supernatant is removed and the released ^51 -chromium measured. The ^51 -chromium released is compared to that released by incubation of labelled cells in detergent, which gives a maximum value, and released by labelled cells incubated in medium alone, which gives a minimum value. If lysis (defined by ^51 -chromium released of at least two times the minimum value) is observed it means that there are cytotoxic T lymphocytes in the patients' mononuclear cells and these are likely to be indicative of infection with HIV.

[2] = test system: human leucocyte antigen (HLA) class I molecule; conditions: disclosed in prior application EP 0346022; cited from earlier work

Substance	HLA restriction of the peptide (through one or more of the antigens) [1]	other results
DLNTMLNTVGGHQAAC [p24-6, NH2 -aspartic acid-leucine-asparagine-threonine-methionine-leucine-asparagine-threonine- valine-glycine-glycine -histidine-glutamine-alanine-alanine-cysteine-COOH]	HLA-A3 or A29 or B44 or B14	
VQNANPDCKTILKALY [p24-20, NH2 -valine-glutamine-asparagine-alanine-asparagine-proline-aspartic acid-cysteine-lysine-threonine-isoleucine-leucine-lysine-alanine-leucine-tyrosine-COOH]		HLA class I molecule with which the peptide interacts specifically [1]: HLA B8; recognition of the peptide by a seropositive donor ([1]; seropositive donor, HLA type as printed): recognised by a seropositive donor of the HLA type HLA-A3, 29B44, 14
NH2 -lysine-arginine-tryptophan-isoleucine-isoleucine-leucine-glycine-leucine- asparagine-lysine-isoleucine-valine-arginine-methionine-tyrosine -cysteine-COOH [p24-14]		HLA class I molecule with which the peptide interacts specifically [2]: HLA B27
CVGGPGHKARVL [p24-23, NH2 -cysteine-valine-glycine-glycine-proline-glycine-histidine-lysine-alanine- arginine-valine-leucine-COOH]	LA-A1 or B7 or B8	
LEEMMTACQGVGGPGY [p24-22, NH2 -leucine-glutamic acid-glutamic acid-methionine-methionine-threonine-alanine-cysteine-glutamine-glycine -valine-glycine-glycine-proline-glycine-tyrosine-COOH]	HLA-A3 or A29 or B44 or B14	
VHQAISPRTLNAWVKC [p24-2, NH2 -valine-histidine-glutamine-alanine-isoleucine-serine-proline-arginine-threonine-leucine-asparagine-alanine -tryptophan-valine-lysine-cysteine-COOH]	HLA-A23 or A30 or B8	
